Source: patent US6355799B1, “Substituted benzene compounds, process for their preparation, and herbicidal and defoliant compositions containing them” (ISK Americas Incorporated, priority 1997, dated 2002)

Legend:
Assay type in all cases: in vivo
[1] = system: redroot pigweed (Amaranthus retroflexus, AMARE); assay: Pre-emerge test, greenhouse herbicide activity screening; details: phytotoxicity rating 0-100, 14 days after application
Outline: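 Visual ratings on a 0-100 scale (0 no damage, 100 all plants dead) were taken at 14 days after treatment. Rates of 15-1000 g ai/ha in acetone, 187 l/ha, were sprayed onto soil one day after planting (pre-emerge) or onto 2-3 leaf plants with 0.25% v/v surfactant (post-emerge).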

[2] = system: barnyardgrass (Echinochloa crus-galli, ECHCG); assay: as above; details: phytotoxicity rating 0-100, 14 days after application
Excerpt: (§1) A standard greenhouse herbicide activity screening system was used to evaluate the herbicidal efficacy and crop safety of these test compounds. Seven broadleaf weed species including redroot pigweed (Amaranthus retroflexus, AMARE, velvetleaf (Abutilon theophrasti, ABUTH), sicklepod (Cassia obtusifolia, CASOB), ivyleaf morningglory (Ipomoea hederacea, IPOHE), lambsquarters (Chenopodium album, CHEAL), common ragweed (Ambrosia artemisizfolia L., AMBEL), and cocklebur (Xanthium strumarium, XANST) were used as test species. Four grass weed species including green foxtail (Setaria viridis, SETVI), barnyardgrass (Echinochloa crus-galli, ECHCG), johnsongrass (Sorghum halepense, SORHA), and large crabgrass (Digitaria sanguinalis, DIGSA) were also used. In addition, three crop species, field corn (Zea mays L., var. Dekalb 535, CORN), soybean (Glycine max L., var. Pella 86, SOY), and is upland rice (Oryza sp., var. Tebonnet, RICE) were included.
(§2) All plants were grown in 10 cm square plastic pots which were filled with a sandy loam soil mix. For pre-emerge tests, seeds were planted one day prior to application of the test compounds. For post-emerge tests, seeds were planted 8-21 days prior to the test to allow emergence and good foliage development prior to application of the test substances. At the time of the post-emerge application, plants of all species were usually at the 2-3 leaf stage of development.
(§3) All test compounds Were dissolved in acetone and applied to the test units in a volume of 187 l /ha. Test materials were applied at rates ranging from 15 g ai/ha to 1000 g ai/ha using a track sprayer equipped with a TJ8001E even flow flat fan spray nozzle. Plants were arranged on a shelf so that the top of the canopy (post-emerge) or top of the soil surface (pre-emerge) was 40-45 cm below the nozzle. Pressurized air was used to force the test solution through the nozzle as it was mechanically advanced (via electrically driven chain drive) over the top of all test plants/pots. This application simulates a typical commercial field herbicide application.
(§4) In the post-emerge test, a commercial non-ionic surfactant was also included (0.25% v/v) to enhance wetting of the leaf surfaces of target plants. Immediately after application, test units of the pre-emerge applications were watered at the soil surface to incorporate the test materials. Subsequently, these test units were bottom-watered. Post-emerge test units were always bottom-watered.
(§5) At 14 days after application of the test materials, phytotoxicity ratings were recorded. A rating scale of 0-100 was used as previously described in Research Methods in Weed Science, 2nd edition, B. Truelove, Ed., Southern Weed Science Society, Auburn University, Auburn, Ala. 1977. Briefly, “0” corresponds to no damage and “100” corresponds to complete death of all plants in the test unit. This scale was used both to determine efficacy against weed species and damage to crop species. Herbicide activity data for various compounds of this invention, which are shown by compound No. in Tables 1-8, are shown in Tables 11 and 12.

[3] = system: green foxtail (Setaria viridis, SETVI); assay: as above; details: phytotoxicity rating 0-100, 14 days after application
Excerpt: as §1, §2, §3, §4, §5

[4] = system: ivyleaf morningglory (Ipomoea hederacea, IPOHE); assay: as above; details: phytotoxicity rating 0-100, 14 days after application
Excerpt: as §1, §2, §3, §4, §5

[5] = system: lambsquarters (Chenopodium album, CHEAL); assay: as above; details: phytotoxicity rating 0-100, 14 days after application
Excerpt: as §1, §2, §3, §4, §5

[6] = system: large crabgrass (Digitaria sanguinalis, DIGSA); assay: as above; details: phytotoxicity rating 0-100, 14 days after application
Excerpt: as §1, §2, §3, §4, §5

[7] = system: sicklepod (Cassia obtusifolia, CASOB); assay: as above; details: phytotoxicity rating 0-100, 14 days after application
Excerpt: as §1, §2, §3, §4, §5

[8] = system: velvetleaf (Abutilon theophrasti, ABUTH); assay: as above; details: phytotoxicity rating 0-100, 14 days after application
Excerpt: as §1, §2, §3, §4, §5

[9] = system: field corn (Zea mays L., var. Dekalb 535, CORN); assay: Pre-emerge test, crop safety; details: crop damage rating 0-100, 14 days after application
Excerpt: as §1, §2, §3, §4, §5

[10] = system: upland rice (Oryza sp., var. Tebonnet, RICE); assay: Pre-emerge test, crop safety; details: crop damage rating 0-100, 14 days after application
Excerpt: as §1, §2, §3, §4, §5

[11] = system: barnyardgrass (Echinochloa crus-galli, ECHCG); assay: Post-emerge test, greenhouse herbicide activity screening; details: post-emerge, 14 days after application, rating scale 0-100
Excerpt: as §1, §2, §3, §4, §5

[12] = system: green foxtail (Setaria viridis, SETVI); assay: as above; details: post-emerge, 14 days after application, rating scale 0-100
Excerpt: as §1, §2, §3, §4, §5

[13] = system: ivyleaf morningglory (Ipomoea hederacea, IPOHE); assay: as above; details: post-emerge, 14 days after application, rating scale 0-100
Excerpt: as §1, §2, §3, §4, §5

[14] = system: lambsquarters (Chenopodium album, CHEAL); assay: as above; details: post-emerge, 14 days after application, rating scale 0-100
Excerpt: as §1, §2, §3, §4, §5

[15] = system: large crabgrass (Digitaria sanguinalis, DIGSA); assay: as above; details: post-emerge, 14 days after application, rating scale 0-100
Excerpt: as §1, §2, §3, §4, §5

[16] = system: redroot pigweed (Amaranthus retroflexus, AMARE); assay: as above; details: post-emerge, 14 days after application
Excerpt: as §1, §2, §3, §4, §5

[17] = system: sicklepod (Cassia obtusifolia, CASOB); assay: as above; details: post-emerge, 14 days after application, rating scale 0-100
Excerpt: as §1, §2, §3, §4, §5

[18] = system: velvetleaf (Abutilon theophrasti, ABUTH); assay: as above; details: post-emerge, 14 days after application, rating scale 0-100
Excerpt: as §1, §2, §3, §4, §5

[19] = system: field corn (Zea mays L., var. Dekalb 535, CORN); assay: Post-emerge test, crop safety; details: post-emerge, 14 days after application, rating scale 0-100
Excerpt: as §1, §2, §3, §4, §5

[20] = system: upland rice (Oryza sp., var. Tebonnet, RICE); assay: Post-emerge test, crop safety; details: post-emerge, 14 days after application, rating scale 0-100
Excerpt: as §1, §2, §3, §4, §5

COc1c(Cl)cc(F)c(-n2c(=O)cc(C(F)(F)F)n(C)c2=O)c1NC(=O)OCc1ccc(C(C)C)cc1 [4-42]
75: phytotoxicity rating AMARE ([16]; 63 g ai/ha, rating scale 0-100 (0 no damage, 100 complete death))
30: Pre-emerge Herbicidal Activity AMARE ([1]; 63 g ai/ha) | Pre-emerge Herbicidal Activity SETVI ([3]; 63 g ai/ha) | phytotoxicity rating IPOHE ([13]; 250 g ai/ha)
60: Pre-emerge Herbicidal Activity DIGSA ([6]; 250 g ai/ha) | Pre-emerge Herbicidal Activity ABUTH ([8]; 63 g ai/ha)
0: Pre-emerge Herbicidal Activity ECHCG ([2]; 63 g ai/ha) | Pre-emerge Herbicidal Activity IPOHE ([4]; 63 g ai/ha) | Pre-emerge Herbicidal Activity CASOB ([7]; 63 g ai/ha) | Pre-emerge Herbicidal Activity CORN ([9]; 63 g ai/ha) | Pre-emerge Herbicidal Activity CORN ([9]; 250 g ai/ha) | Pre-emerge Herbicidal Activity RICE ([10]; 63 g ai/ha) | Pre-emerge Herbicidal Activity RICE ([10]; 250 g ai/ha) | phytotoxicity rating ECHCG ([11]; 63 g ai/ha) | phytotoxicity rating SETVI ([12]; 63 g ai/ha) | phytotoxicity rating SETVI ([12]; 250 g ai/ha) | phytotoxicity rating DIGSA ([15]; 63 g ai/ha) | phytotoxicity rating DIGSA ([15]; 250 g ai/ha) | phytotoxicity rating CASOB ([17]; 63 g ai/ha) | phytotoxicity rating CASOB ([17]; 250 g ai/ha) | phytotoxicity rating CORN (crop damage) ([19]; 63 g ai/ha) | phytotoxicity rating CORN (crop damage) ([19]; 250 g ai/ha) | phytotoxicity rating RICE (crop damage) ([20]; 63 g ai/ha) | phytotoxicity rating RICE (crop damage) ([20]; 250 g ai/ha)
90: Pre-emerge Herbicidal Activity AMARE ([1]; 250 g ai/ha) | phytotoxicity rating CHEAL ([14]; 250 g ai/ha)
10: Pre-emerge Herbicidal Activity DIGSA ([6]; 63 g ai/ha) | phytotoxicity rating ECHCG ([11]; 250 g ai/ha)
40: Pre-emerge Herbicidal Activity ECHCG ([2]; 250 g ai/ha) | Pre-emerge Herbicidal Activity IPOHE ([4]; 250 g ai/ha) | Pre-emerge Herbicidal Activity CHEAL ([5]; 63 g ai/ha) | phytotoxicity rating IPOHE ([13]; 63 g ai/ha)
80: phytotoxicity rating CHEAL ([14]; 63 g ai/ha)
100: Pre-emerge Herbicidal Activity SETVI ([3]; 250 g ai/ha) | Pre-emerge Herbicidal Activity CHEAL ([5]; 250 g ai/ha) | Pre-emerge Herbicidal Activity CASOB ([7]; 250 g ai/ha) | Pre-emerge Herbicidal Activity ABUTH ([8]; 250 g ai/ha) | phytotoxicity rating AMARE ([16]; 250 g ai/ha, rating scale 0-100) | phytotoxicity rating ABUTH ([18]; 63 g ai/ha) | phytotoxicity rating ABUTH ([18]; 250 g ai/ha)
